Test results taken from PMC9506414, “Novel 2,6,9-Trisubstituted Purines as Potent CDK Inhibitors Alleviating Trastuzumab-Resistance of HER2-Positive Breast Cancers” (Pharmaceuticals, 2022).

Experiments:
Experiment in all cases: Kinome-wide inhibition profiling
Assay type in all cases: biochemical
ABL2 = biological target: T1, ABL2 (Homo sapiens, UniProt P42684)
T1 construct: purchased Reaction Biology Corp
Method: (§1) In vitro CDK12/cyclinK assays for all compounds and in vitro kinome-wide inhibition profiling of 30d at 10 μM were performed by a CRO company (Reaction Biology Corp., San Diego, CA, USA).

EPHA8 = biological target: T2, EPHA8 (Homo sapiens, UniProt P29322)
T2 construct: purchased Reaction Biology Corp
T2 sequence (P29322 28-1005): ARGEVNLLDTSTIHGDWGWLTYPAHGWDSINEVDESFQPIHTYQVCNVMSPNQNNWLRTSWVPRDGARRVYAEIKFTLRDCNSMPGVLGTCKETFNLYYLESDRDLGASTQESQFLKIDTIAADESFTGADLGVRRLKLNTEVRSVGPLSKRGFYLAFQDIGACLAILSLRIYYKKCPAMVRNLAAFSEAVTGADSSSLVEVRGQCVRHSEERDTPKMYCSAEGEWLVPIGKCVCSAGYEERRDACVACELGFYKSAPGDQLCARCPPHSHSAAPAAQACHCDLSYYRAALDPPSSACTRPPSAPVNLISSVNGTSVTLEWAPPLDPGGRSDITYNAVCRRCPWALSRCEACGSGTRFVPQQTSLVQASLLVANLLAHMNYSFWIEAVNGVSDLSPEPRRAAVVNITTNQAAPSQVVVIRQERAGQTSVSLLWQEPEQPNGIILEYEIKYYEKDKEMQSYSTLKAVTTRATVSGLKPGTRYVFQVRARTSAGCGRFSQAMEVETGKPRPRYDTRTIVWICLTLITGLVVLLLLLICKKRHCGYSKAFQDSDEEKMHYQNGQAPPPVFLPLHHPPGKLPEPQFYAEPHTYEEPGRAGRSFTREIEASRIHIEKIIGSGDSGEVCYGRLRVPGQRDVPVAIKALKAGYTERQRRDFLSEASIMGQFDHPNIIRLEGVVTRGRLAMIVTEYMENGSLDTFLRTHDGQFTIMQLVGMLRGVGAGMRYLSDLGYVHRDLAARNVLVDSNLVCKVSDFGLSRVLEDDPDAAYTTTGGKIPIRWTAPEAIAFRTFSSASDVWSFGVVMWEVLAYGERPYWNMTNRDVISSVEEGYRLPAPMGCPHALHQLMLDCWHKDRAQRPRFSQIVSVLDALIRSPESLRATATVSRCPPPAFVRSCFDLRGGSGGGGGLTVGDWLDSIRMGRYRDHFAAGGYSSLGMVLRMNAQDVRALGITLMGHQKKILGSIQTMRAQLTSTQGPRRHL
Method: as §1

FLT3 = biological target: T3, FLT3 (Homo sapiens, UniProt P36888)
T3 construct: purchased Reaction Biology Corp
Method: as §1

GRK2 = biological target: T4, GRK2 (Homo sapiens, UniProt P25098)
T4 construct: purchased Reaction Biology Corp
Method: as §1

IGF1R = biological target: T5, IGF1R (Homo sapiens, UniProt P08069)
T5 construct: purchased Reaction Biology Corp
Method: as §1

IKK-alpha = biological target: T6, IKK-alpha (Homo sapiens, UniProt O15111)
T6 construct: purchased Reaction Biology Corp
Method: as §1

IKK-beta = biological target: T7, IKK-beta (Homo sapiens, UniProt O14920)
T7 construct: purchased Reaction Biology Corp
Method: as §1

IRAK4 = biological target: T8, IRAK4 (Homo sapiens, UniProt Q9NWZ3)
T8 construct: purchased Reaction Biology Corp
Method: as §1

JNK2 = biological target: T9, JNK2 (Homo sapiens, UniProt P45984)
T9 construct: purchased Reaction Biology Corp
Method: as §1

LIMK1 = biological target: T10, LIMK1 (Homo sapiens, UniProt P53667)
T10 construct: purchased Reaction Biology Corp
Method: as §1

MAP3K1 = biological target: T11, MAP3K1 (Homo sapiens, UniProt Q13233)
T11 construct: purchased Reaction Biology Corp
Method: as §1

MEK3 = biological target: T12, MEK3 (Homo sapiens, UniProt P46734)
T12 construct: purchased Reaction Biology Corp
T12 sequence (P46734 whole entry): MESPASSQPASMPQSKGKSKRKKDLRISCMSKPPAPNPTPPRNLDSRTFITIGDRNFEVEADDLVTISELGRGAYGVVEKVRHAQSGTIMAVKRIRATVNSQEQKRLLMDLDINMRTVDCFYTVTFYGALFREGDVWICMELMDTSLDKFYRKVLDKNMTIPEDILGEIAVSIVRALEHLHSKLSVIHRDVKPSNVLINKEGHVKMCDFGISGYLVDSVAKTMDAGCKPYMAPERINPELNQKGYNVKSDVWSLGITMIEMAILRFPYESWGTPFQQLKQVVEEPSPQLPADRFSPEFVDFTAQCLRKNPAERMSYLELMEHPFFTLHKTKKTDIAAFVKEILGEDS
Method: as §1

MELK = biological target: T13, MELK (Homo sapiens, UniProt Q14680)
T13 construct: purchased Reaction Biology Corp
Method: as §1

MKK4 = biological target: T14, MKK4 (Homo sapiens, UniProt P45985)
T14 construct: purchased Reaction Biology Corp
T14 sequence (P45985 whole entry): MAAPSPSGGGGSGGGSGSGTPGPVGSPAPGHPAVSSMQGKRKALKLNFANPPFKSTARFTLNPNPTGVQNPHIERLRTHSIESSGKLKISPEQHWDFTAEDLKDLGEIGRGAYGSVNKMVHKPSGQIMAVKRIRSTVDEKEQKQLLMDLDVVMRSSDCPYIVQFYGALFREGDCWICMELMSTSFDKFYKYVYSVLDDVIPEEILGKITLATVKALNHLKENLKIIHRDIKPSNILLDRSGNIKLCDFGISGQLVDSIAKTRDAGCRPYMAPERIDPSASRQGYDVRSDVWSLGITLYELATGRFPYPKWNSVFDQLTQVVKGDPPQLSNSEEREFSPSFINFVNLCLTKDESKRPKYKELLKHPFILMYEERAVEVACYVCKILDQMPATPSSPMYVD
Method: as §1

MLCK = biological target: T15, MLCK (Homo sapiens, UniProt Q15746)
T15 construct: purchased Reaction Biology Corp
Method: as §1

MRCKb = biological target: T16, MRCKb (Homo sapiens, UniProt Q9Y5S2)
T16 construct: purchased Reaction Biology Corp
Method: as §1

MST2 = biological target: T17, MST2 (Homo sapiens, UniProt Q13188)
T17 construct: purchased Reaction Biology Corp
T17 sequence (Q13188 whole entry): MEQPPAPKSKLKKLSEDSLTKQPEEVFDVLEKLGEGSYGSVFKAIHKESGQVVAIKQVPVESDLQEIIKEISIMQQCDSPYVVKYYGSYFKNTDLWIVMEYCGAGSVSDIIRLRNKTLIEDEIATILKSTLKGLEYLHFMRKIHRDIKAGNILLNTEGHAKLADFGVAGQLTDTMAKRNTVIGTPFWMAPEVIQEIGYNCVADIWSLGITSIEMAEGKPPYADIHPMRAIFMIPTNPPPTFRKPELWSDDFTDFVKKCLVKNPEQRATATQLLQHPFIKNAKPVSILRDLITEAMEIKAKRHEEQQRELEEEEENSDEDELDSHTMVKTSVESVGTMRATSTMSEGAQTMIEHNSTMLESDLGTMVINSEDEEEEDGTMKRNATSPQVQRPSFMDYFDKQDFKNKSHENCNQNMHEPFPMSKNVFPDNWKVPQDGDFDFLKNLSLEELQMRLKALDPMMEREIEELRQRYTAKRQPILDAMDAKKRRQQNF
Method: as §1

MST4 = biological target: T18, MST4 (Homo sapiens, UniProt Q9P289)
T18 construct: purchased Reaction Biology Corp
Method: as §1

MYLK3 = biological target: T19, MYLK3 (Homo sapiens, UniProt Q32MK0)
T19 construct: purchased Reaction Biology Corp
Method: as §1

NDR1 = biological target: T20, NDR1 (Homo sapiens, UniProt Q15208)
T20 construct: purchased Reaction Biology Corp
T20 sequence (Q15208 whole entry): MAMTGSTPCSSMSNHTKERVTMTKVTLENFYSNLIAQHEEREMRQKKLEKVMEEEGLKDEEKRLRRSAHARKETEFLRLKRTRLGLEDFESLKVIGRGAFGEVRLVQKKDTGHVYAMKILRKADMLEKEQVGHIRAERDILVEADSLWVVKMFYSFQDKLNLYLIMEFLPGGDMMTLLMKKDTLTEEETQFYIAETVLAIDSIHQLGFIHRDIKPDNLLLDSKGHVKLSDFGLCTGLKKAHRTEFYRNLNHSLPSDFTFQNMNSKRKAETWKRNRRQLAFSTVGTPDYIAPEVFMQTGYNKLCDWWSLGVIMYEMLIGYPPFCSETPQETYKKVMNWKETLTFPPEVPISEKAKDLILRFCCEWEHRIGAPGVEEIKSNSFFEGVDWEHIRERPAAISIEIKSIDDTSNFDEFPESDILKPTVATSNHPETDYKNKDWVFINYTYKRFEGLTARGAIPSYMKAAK
Method: as §1

NEK1 = biological target: T21, NEK1 (Homo sapiens, UniProt Q96PY6)
T21 construct: purchased Reaction Biology Corp
T21 sequence (Q96PY6 whole entry): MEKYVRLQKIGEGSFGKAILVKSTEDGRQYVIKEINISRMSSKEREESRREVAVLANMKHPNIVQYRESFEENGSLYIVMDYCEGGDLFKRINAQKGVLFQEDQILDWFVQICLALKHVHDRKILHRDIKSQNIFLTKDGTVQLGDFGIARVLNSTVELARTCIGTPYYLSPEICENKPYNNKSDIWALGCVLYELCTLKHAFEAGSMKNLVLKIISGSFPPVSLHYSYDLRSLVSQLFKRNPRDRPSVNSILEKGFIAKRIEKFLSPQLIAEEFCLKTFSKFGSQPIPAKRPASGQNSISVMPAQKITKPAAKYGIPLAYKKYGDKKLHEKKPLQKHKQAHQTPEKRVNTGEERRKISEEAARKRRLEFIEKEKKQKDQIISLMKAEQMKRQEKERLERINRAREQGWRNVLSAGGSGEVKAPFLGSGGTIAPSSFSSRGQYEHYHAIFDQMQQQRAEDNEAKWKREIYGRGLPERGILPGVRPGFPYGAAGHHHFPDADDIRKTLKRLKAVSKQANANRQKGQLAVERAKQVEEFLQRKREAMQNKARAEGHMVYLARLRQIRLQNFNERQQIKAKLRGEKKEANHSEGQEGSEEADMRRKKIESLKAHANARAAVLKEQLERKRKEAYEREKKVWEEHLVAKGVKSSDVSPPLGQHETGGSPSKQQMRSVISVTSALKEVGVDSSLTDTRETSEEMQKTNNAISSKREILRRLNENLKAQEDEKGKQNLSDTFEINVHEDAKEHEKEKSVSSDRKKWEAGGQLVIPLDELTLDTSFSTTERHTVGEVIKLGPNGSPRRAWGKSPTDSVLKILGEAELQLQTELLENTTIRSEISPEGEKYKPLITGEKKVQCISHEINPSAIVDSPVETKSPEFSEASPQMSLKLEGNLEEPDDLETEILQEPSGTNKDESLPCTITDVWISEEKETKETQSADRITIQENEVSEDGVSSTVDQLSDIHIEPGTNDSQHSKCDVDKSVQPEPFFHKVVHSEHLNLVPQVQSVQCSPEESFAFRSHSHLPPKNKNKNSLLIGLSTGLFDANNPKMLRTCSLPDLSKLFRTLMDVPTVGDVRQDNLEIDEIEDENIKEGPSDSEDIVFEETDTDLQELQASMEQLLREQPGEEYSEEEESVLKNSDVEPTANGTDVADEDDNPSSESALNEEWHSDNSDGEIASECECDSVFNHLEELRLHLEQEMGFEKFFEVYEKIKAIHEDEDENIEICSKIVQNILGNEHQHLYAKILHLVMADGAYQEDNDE
Method: as §1

NEK4 = biological target: T22, NEK4 (Homo sapiens, UniProt P51957)
T22 construct: purchased Reaction Biology Corp
Method: as §1

NEK6 = biological target: T23, NEK6 (Homo sapiens, UniProt Q9HC98)
T23 construct: purchased Reaction Biology Corp
Method: as §1

P38-gamma = biological target: T24, P38-gamma (Homo sapiens, UniProt P53778)
T24 construct: purchased Reaction Biology Corp
Method: as §1

PAK3 = biological target: T25, PAK3 (Homo sapiens, UniProt O75914)
T25 construct: purchased Reaction Biology Corp
Method: as §1

PCTK2 = biological target: T26, PCTK2 (Homo sapiens, UniProt Q00537)
T26 construct: purchased Reaction Biology Corp
Method: as §1

PKAC-beta = biological target: T27, PKAC-beta (Homo sapiens, UniProt P22694)
T27 construct: purchased Reaction Biology Corp
Method: as §1

PLK3 = biological target: T28, PLK3 (Homo sapiens, UniProt Q9H4B4)
T28 construct: purchased Reaction Biology Corp
Method: as §1

PRKCE = biological target: T29, PRKCE (Homo sapiens, UniProt Q02156)
T29 construct: purchased Reaction Biology Corp
Method: as §1

PRKD1 = biological target: T30, PRKD1 (Homo sapiens, UniProt Q15139)
T30 construct: purchased Reaction Biology Corp
Method: as §1

PRKG1 = biological target: T31, PRKG1 (Homo sapiens, UniProt Q13976)
T31 construct: purchased Reaction Biology Corp
Method: as §1

PYK2 = biological target: T32, PYK2 (Homo sapiens, UniProt Q14289)
T32 construct: purchased Reaction Biology Corp
Method: as §1

RAF1 = biological target: T33, RAF1 (Homo sapiens, UniProt P04049)
T33 construct: purchased Reaction Biology Corp
Method: as §1

RIPK4 = biological target: T34, RIPK4 (Homo sapiens, UniProt P57078)
T34 construct: purchased Reaction Biology Corp
Method: as §1

STK33 = biological target: T35, STK33 (Homo sapiens, UniProt Q9BYT3)
T35 construct: purchased Reaction Biology Corp
Method: as §1

STK39 = biological target: T36, STK39 (Homo sapiens, UniProt Q9UEW8)
T36 construct: purchased Reaction Biology Corp
Method: as §1

TEC = biological target: T37, TEC (Homo sapiens, UniProt P42680)
T37 construct: purchased Reaction Biology Corp
Method: as §1

TESK1 = biological target: T38, TESK1 (Homo sapiens, UniProt Q15569)
T38 construct: purchased Reaction Biology Corp
Method: as §1

TIE2 = biological target: T39, TIE2 (Homo sapiens, UniProt Q02763)
T39 construct: purchased Reaction Biology Corp
Method: as §1

TNK1 = biological target: T40, TNK1 (Homo sapiens, UniProt Q13470)
T40 construct: purchased Reaction Biology Corp
Method: as §1

ULK1 = biological target: T41, ULK1 (Homo sapiens, UniProt O75385)
T41 construct: purchased Reaction Biology Corp
T41 sequence (O75385 whole entry): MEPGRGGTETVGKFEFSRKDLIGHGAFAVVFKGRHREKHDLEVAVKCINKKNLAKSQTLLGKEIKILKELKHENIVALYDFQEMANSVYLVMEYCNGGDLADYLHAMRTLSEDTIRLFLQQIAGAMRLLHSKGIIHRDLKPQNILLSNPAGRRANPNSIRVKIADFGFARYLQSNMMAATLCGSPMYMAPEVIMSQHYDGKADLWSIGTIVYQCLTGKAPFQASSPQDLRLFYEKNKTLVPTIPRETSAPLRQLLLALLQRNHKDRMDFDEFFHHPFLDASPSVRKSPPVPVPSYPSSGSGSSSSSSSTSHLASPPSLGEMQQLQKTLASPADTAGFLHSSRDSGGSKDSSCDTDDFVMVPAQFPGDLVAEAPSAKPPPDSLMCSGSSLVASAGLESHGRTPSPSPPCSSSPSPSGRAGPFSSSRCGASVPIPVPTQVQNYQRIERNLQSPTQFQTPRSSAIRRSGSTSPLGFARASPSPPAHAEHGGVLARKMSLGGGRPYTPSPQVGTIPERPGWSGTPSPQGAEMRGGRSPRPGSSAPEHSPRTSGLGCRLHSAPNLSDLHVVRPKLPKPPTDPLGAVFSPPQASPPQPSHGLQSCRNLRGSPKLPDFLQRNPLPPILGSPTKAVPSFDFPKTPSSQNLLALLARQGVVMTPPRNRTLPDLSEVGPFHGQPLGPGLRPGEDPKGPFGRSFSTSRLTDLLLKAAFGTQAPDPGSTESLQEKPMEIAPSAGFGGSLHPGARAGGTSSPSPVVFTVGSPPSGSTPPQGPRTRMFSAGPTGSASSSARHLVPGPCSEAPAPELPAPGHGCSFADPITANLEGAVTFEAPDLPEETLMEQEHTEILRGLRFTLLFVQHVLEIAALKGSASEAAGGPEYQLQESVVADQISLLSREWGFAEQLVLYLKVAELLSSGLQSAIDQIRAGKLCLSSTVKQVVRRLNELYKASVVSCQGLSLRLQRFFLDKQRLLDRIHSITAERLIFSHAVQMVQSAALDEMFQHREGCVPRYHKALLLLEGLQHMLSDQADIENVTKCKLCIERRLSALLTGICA
Method: as §1

WNK1 = biological target: T42, WNK1 (Homo sapiens, UniProt Q9H4A3)
T42 construct: purchased Reaction Biology Corp
Method: as §1

WNK2 = biological target: T43, WNK2 (Homo sapiens, UniProt Q9Y3S1)
T43 construct: purchased Reaction Biology Corp
Method: as §1

YSK1 = biological target: T44, YSK1 (Homo sapiens, UniProt O00506)
T44 construct: purchased Reaction Biology Corp
Method: as §1

CCn1cnc2c(NCc3ccc(-c4ccccn4)nc3)nc(-c3ccc(N)nc3)nc21 [Compound 30d, N-([2,2′-Bipyridin]-5-ylmethyl)-2-(6-aminopyridin-3-yl)-9-ethyl-9H-purin-6-amine]
remaining activity at 10 µM (ABL2): 56.1%
remaining activity at 10 µM (EPHA8): 94%
remaining activity at 10 µM (FLT3): 40.2%
remaining activity at 10 µM (GRK2): 99.1%
remaining activity at 10 µM (IGF1R): 58%
remaining activity at 10 µM (IKK-alpha): 71.5%
remaining activity at 10 µM (IKK-beta): 83.7%
remaining activity at 10 µM (IRAK4): 94.8%
remaining activity at 10 µM (JNK2): 61.7%
remaining activity at 10 µM (LIMK1): 59.9%
remaining activity at 10 µM (MAP3K1): 87%
remaining activity at 10 µM (MEK3): 73.5%
remaining activity at 10 µM (MELK): 21.2%
remaining activity at 10 µM (MKK4): 96.4%
remaining activity at 10 µM (MLCK): 63.4%
remaining activity at 10 µM (MRCKb): 99.3%
remaining activity at 10 µM (MST2): 53.5%
remaining activity at 10 µM (MST4): 45.8%
remaining activity at 10 µM (MYLK3): 105%
remaining activity at 10 µM (NDR1): 28.3%
remaining activity at 10 µM (NEK1): 92.3%
remaining activity at 10 µM (NEK4): 95.8%
remaining activity at 10 µM (NEK6): 92.1%
remaining activity at 10 µM (P38-gamma): 118%
remaining activity at 10 µM (PAK3): 29.1%
remaining activity at 10 µM (PCTK2): 7.3%
remaining activity at 10 µM (PKAC-beta): 104%
remaining activity at 10 µM (PLK3): 94.4%
remaining activity at 10 µM (PRKCE): 94.1%
remaining activity at 10 µM (PRKD1): 70.3%
remaining activity at 10 µM (PRKG1): 108%
remaining activity at 10 µM (PYK2): 47.5%
remaining activity at 10 µM (RAF1): 68.6%
remaining activity at 10 µM (RIPK4): 97.8%
remaining activity at 10 µM (STK33): 33.5%
remaining activity at 10 µM (STK39): 29.6%
remaining activity at 10 µM (TEC): 71.5%
remaining activity at 10 µM (TESK1): 93.1%
remaining activity at 10 µM (TIE2): 34.8%
remaining activity at 10 µM (TNK1): 91.3%
remaining activity at 10 µM (ULK1): 70.3%
remaining activity at 10 µM (WNK1): 82.5%
remaining activity at 10 µM (WNK2): 108%
remaining activity at 10 µM (YSK1): 23.1%
